# Laboratory results from patent publication US11123350B2, “Metal delivery agents and therapeutic uses of the same” (THE UNIVERSITY OF MELBOURNE, priority 2006, dated 2021).
# How the values were obtained:
# [1] = tested on: APP-transfected Chinese Hamster Ovary (APP-CHO) cells; experiment: Cellular copper uptake of Cu-BTSC complexes (ICP-MS); format: cell-based
# Description: APP-transfected Chinese Hamster Ovary (APP-CHO) cells were treated with a range of [Cu(BTSC] complexes with dialkyl backbones at 1-50 μM for 6 hr in serum-free culture medium. Cells were washed twice with phosphate buffered saline (PBS) and cells scraped into fresh PBS and pelleted at 10,000 rpm in a microfuge for 5 min. Supernatant was discarded and cell pellets frozen at −70° C. until metal levels were determined by inductively-coupled plasma mass spectrometry (ICP-MS) at the Department of Pathology, University of Melbourne.
# [2] = tested on: M17 human neuroblastoma cells; experiment: Ionophore assay (metal uptake, ICPMS); format: cell-based; conditions: 5 hours at 37° C., reported versus internal control Clioquinol
# Description: M17 human neuroblastoma cells were plated out on 6 well plates and left overnight. Enough cells were added to give approximately 70% confluent the following day of the experiment.
# The test cells were incubated in 1 ml of media and compound mix for 5 hours at 37° C. At the end of the incubation the media was removed with a vacuum aspirator and 1 ml of PBS added to dislodge the cells. Cells are then put into Eppendorf tubes and pelleted. The PBS is removed and the remaining cell pellets are frozen at −20° C.
# Cell pellets of similar levels are placed in 1.5 ml microfuge tubes. To each tube was added 50 μl of concentrated Nitric Acid (Aristar, BDH) to each cell pellet and allowed each cell pellet was allowed to digest overnight. The samples were heated for 20 min at 90° C. to complete the digestion. The volume of each sample was reduced to ˜45 ? l after digestion. To each was added 1 ml of the 1% Nitric Acid diluent. Measurements were made using a Varian UltraMass ICPMS instrument under operating conditions suitable for routine multi-element analysis.
# The instrument was calibrated using Blank, 10, 50 and 100 ppb of a certified multi-element ICPMS standard solution (ICP-MS-CAI2-1, Accustandard) for Fe, Cu and Zn in 1% nitric acid. Used an certified internal standard solution containing 100 ppb Yttrium (Y 89) as an internal control (ICP-MS-IS-MIX1-1, Accustandard).
# [3] = tested on: WT cells; experiment: Dopamine induced cell death, WT cells (MTT); format: cell-based
# Description: A series of trials were conducted in which the effect of CuGTSM on inhibiting Dopamine induced cell death were conducted on WT cells and A30P cells. The protocol used was as follows.
# The cell line was maintained in OPTI-MEM (Gibco) supplemented with 10% fetal calf serum (FCS), Non-essential amino acids, sodium pyruvate and Penn/Strep. Cells were incubated at 37° C. in a humidified atmosphere of 95% air and 5% CO2. Cell assays were plated out into 48 well culture plates at 4×10^4 cells per well. Cells were left to settle overnight then incubated with drugs for 24h prior to being subjected to MTT assays for cell viability.
# The viability of cells was assessed using an MTT assay. […] The mixture of media and reagents e.g. Dopamine was aspirated off and media containing 5 mg/mI MTT is added and the plate incubated for 1 h at 37° C. The remaining media/MTT solution is aspirated off and the cells were then solubilized with DMSO. The 48 well plate is then read at 595 nm on a plate reader.
# In essence a series of WT cells and A30P cells were treated with a control, Dopamine, CuGTSM, Cu ATSM, and combinations of Dopamine and CuGTSM, and dopamine and CuATSM at various concentrations to determine the ability of the compound to act as an anti-oxidant and […] cell death. The results are shown in table 15 (WT cells) and Table 16 (A30P cells)
# [4] = tested on: mice with 6-OHDA lesion of the SNpc; experiment: 6-OHDA lesion Parkinson's disease model, amphetamine-induced rotation; format: in vivo; conditions: oral gavage 10 or 30 mg/kg daily, 7 days pre-lesion and 14 days post lesion
# [5] = tested on: EAE mouse model; experiment: Experimental autoimmune encephalomyelitis (EAE) mouse model of MS; format: in vivo; conditions: daily oral treatment
# Description: (§1) I. Cu(ATSM) is protective in mouse models of MS. The two most widely used mouse models of MS are the experimental autoimmune encephalomyelitis (EAE) and cuprizone models. Some features of progressive MS are evident in each model. Administration of Cu(ATSM) to these mice (daily oral treatment) established that: (a) Cu(ATSM) improved body weight changes and neurological symptoms evident in the EAE mouse model; (b) Cu(ATSM) improved body weight changes evident in the cuprizone mouse model; and (c) treating with Cu(ATSM) improves myelination in the corpus callosum of the cuprizone mouse model.
# [6] = tested on: cuprizone mouse model; experiment: Cuprizone mouse model of MS; format: in vivo; conditions: daily oral treatment
# Description: as §1
# [7] = cited from earlier work
# [8] = tested on: G93A-SOD1 mice; experiment: G93A SOD1 ALS mice: survival and onset of paralysis
compound,measurement,setting,value
"CN=C([S-])N/N=C(C)/C(C)=N/NC([S-])=NC.[64Cu+2] [Complex A2, copper(II)diacetylbis(N(4)-methylthiosemicarbazone)]",fold increase in cellular copper levels compared to untreated control cells,"[1]; 1-50 μM, 6 hr",177±9 fold
same,cellular Copper level,"[1]; treated, control 4.5",796 ng/mg protein
same,Ionophore (% uptake of metal at 10 μm),[2],157.1%
same,% recovery,[3]; Dopamine 500 μm + complex 0.01 μM,64.28%
same,% recovery,[3]; Dopamine 500 μm + complex 0.1 μM,103.13%
same,amphetamine-induced rotation versus control group,[4],performed better
same,body weight changes in the EAE mouse model,[5],improved
same,neurological symptoms in the EAE mouse model,[5],improved
same,body weight changes in the cuprizone mouse model,[6],improved
same,myelination in the corpus callosum,[6],improves
same,reduction potential E1/2,[7]; Cu(II) to Cu(I),−0.59 V
same,"Cu(II)/Cu(I) reduction potential, harder to reduce than [Cu(GTSM)]",[7]; difference to [Cu(GTSM)],~160 mV
same,onset of paralysis in ALS mice,[8]; 30 mg/kg gavage once daily (5 days/week),significantly delays
same,Increased Life Span,"[8]; G93A-SOD1 mice, present results",31 to 33 days
